From patent publication US20100240612A1, “Prenylated Bisphosphonates as Anti-tuberculosis Agents” (priority 2009, published 2010)

Experiments:
[1] = target: T1, mycobacterial polyprenyl synthase (RV2361c) (Mycobacterium tuberculosis, UniProt P9WFF7); assay: Test A: Inhibition of Mycobacterial Polyprenyl Synthase (RV2361c); format: biochemical; details: result in words, data only in FIG. 1/FIG. 2
T1 sequence (P9WFF7 1-296): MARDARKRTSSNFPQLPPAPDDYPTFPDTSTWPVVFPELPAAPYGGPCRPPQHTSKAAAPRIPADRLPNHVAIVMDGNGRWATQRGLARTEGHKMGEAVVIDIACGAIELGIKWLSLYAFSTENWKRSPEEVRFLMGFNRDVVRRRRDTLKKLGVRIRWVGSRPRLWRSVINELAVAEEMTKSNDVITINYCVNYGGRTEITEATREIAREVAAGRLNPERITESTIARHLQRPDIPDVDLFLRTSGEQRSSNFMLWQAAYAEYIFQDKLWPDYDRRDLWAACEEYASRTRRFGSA

[2] = system: Mycobacterium Smegmatis (ATCC 607); assay: Test B: Inhibition of Growth of the Bacterium M. Smegmatis; format: cell-based; details: grown in the presence of drug for 2 days, absorbance at 540 nm or CFU; result in words, data only in FIG. 3, versus Isoniazid
Procedure: Mycobacterium Smegmatis (ATCC 607) was obtained from American Type Culture Collection and cultured in 7H9 broth (Sigma) containing ADC (Sigma), 0.5% glycerol, and 0.05% Tween-80. Bacteria were grown to log phase and then diluted, aliquoted, and grown in the presence of indicated drugs for 2 days. Growth was measured as a function of optical absorbance at 540 nm using a spectrophotometer. Alternatively, aliquots of liquid cultures were spread onto agar containing plates, which were then grown for 2 days, after which the number of colony forming units (CFU) were counted and normalized per mL.

Compound: CC(C)=CCc1ccc(CC(P(=O)([O-])[O-])P(=O)([O-])[O-])cc1.[Na+].[Na+].[Na+].[Na+] [compound 13, p-Prenyl-phenethylidene bisphosphonic acid tetra sodium salt]
- inhibition of purified mycobacterial polyprenyl synthase (RV2361c) [1]: inhibition

Compound: COC(=O)c1ccccc1NC/C(C)=C/CC/C(C)=C/CC(P(=O)(OCOC(=O)C(C)(C)C)OCOC(=O)C(C)(C)C)P(=O)(OCOC(=O)C(C)(C)C)OCOC(=O)C(C)(C)C [compound 24]
- inhibition of growth of the bacterium M. Smegmatis [2]: inhibition of growth
